Experimental data from ChEMBL document CHEMBL4219257, “Novel 8-hydroxyquinoline derivatives targeting β-amyloid aggregation, metal chelation and oxidative stress against Alzheimer's disease” (Bioorg Med Chem, 2018).
pIC50: −log10 of the molar value. Calls of active or inactive are those of the source. The calls are words filed in the database; no cut-off is given here.

Key:
[1] = molecular target: T1, Amyloid-beta precursor protein (Homo sapiens, UniProt P05067); experiment: Inhibition of HFIP-pretreated amyloid beta (1 to 42) (unknown origin) self-induced aggregation after 48 hrs by thioflavin T-based fluorometric assay
T1 sequence (P05067 whole entry): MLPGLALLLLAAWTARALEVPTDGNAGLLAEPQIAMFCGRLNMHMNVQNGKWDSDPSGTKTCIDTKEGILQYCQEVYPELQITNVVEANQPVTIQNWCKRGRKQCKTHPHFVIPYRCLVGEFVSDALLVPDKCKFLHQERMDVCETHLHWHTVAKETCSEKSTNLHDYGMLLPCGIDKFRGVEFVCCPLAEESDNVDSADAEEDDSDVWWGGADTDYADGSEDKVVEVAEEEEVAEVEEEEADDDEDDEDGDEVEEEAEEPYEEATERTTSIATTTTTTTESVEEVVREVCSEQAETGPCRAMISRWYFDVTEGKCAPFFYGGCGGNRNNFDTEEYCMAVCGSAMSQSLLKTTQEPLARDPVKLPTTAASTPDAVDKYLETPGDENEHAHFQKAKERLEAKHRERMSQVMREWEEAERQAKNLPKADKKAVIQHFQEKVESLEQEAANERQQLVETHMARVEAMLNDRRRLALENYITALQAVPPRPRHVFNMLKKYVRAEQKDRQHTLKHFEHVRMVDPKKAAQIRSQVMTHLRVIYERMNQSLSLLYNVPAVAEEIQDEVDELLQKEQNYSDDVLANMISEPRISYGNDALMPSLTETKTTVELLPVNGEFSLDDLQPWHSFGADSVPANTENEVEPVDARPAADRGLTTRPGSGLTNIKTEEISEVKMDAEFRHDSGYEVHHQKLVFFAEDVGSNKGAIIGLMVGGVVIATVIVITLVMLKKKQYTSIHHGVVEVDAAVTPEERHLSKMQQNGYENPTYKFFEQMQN

[2] = molecular target: T1, Amyloid-beta precursor protein; experiment: Inhibition of HFIP-pretreated amyloid beta (1 to 42) (unknown origin) self-induced aggregation at 10 uM after 48 hrs by thioflavin T-based fluorometric assay relative to control
[3] = Antioxidant activity assessed as trolox equivalents of AAPH radical scavenging activity at 10 uM preincubated for 15 mins followed by AAPH addition measured every minute for 120 mins by ORAC-FL assay; format: functional
[4] = in vitro; conditions: PAMPA
Description: Permeability of the compound at 100 ug/ml after 10 hrs by PAMPA

[5] = Inhibition of Zn2+ - induced amyloid beta (1 to 42) (unknown origin) aggregation at 50 uM after 24 hrs by thioflavin T-based fluorometric assay relative to control
[6] = Inhibition of Cu2+ - induced amyloid beta (1 to 42) (unknown origin) aggregation at 50 uM after 24 hrs by thioflavin T-based fluorometric assay relative to control
[7] = test system: PC-12; experiment: Cytoprotection against H2O2-induced apoptosis in rat PC12 cells assessed as necrotic cells at 2.5 uM preincubated for 4 hrs followed by H2O2 addition measured after 24 hrs by Annexin V-FITC/propidium iodide staining based flow cytometry (reference value: 8.9%); format: functional
[8] = test system: PC-12; experiment: Cytoprotection against H2O2-induced apoptosis in rat PC12 cells assessed as necrotic cells at 5 uM preincubated for 4 hrs followed by H2O2 addition measured after 24 hrs by Annexin V-FITC/propidium iodide staining based flow cytometry (reference value: 8.9%); format: functional
[9] = test system: Mus musculus; experiment: Acute toxicity in Kunming mouse assessed as fur sleekness up to 2000 mg/kg, po measured after 4 hrs; format: organism-based; conditions: in vivo
[10] = Metal chelating activity assessed as compound-Cu2+ complex formation by measuring maximum absorption wavelength at 50 uM measured after 30 mins by UV-vis spectrophotometric method (reference value: 241 nanometer)
[11] = test system: PC-12; experiment: Inhibition of H2O2-induced ROS level in rat PC12 cells assessed as mean fluorescence intensity at 5 uM preincubated for 4 hrs followed by H2O2 addition measured after 24 hrs by DCFH-DA staining based flow cytometry (reference value: 16947); format: functional
[12] = Metal chelating activity assessed as mole fraction of compound required to show 2.3:1 stoichiometry for compound-Cu2+ complex at 50 uM by Job's plot analysis
[13] = test system: Mus musculus; experiment: Acute toxicity in Kunming mouse assessed as effect on body weight up to 2000 mg/kg, po measured after 4 hrs; format: organism-based; conditions: in vivo
[14] = test system: Mus musculus; experiment: Acute toxicity in Kunming mouse assessed as death up to 2000 mg/kg, po measured after 4 hrs; format: organism-based; conditions: in vivo
[15] = test system: Mus musculus; experiment: Acute toxicity in Kunming mouse assessed as effect on water consumption up to 2000 mg/kg, po measured after 4 hrs; format: organism-based; conditions: in vivo
[16] = test system: PC-12; experiment: Cytoprotection against H2O2-induced apoptosis in rat PC12 cells assessed as late apoptotic cells at 10 uM preincubated for 4 hrs followed by H2O2 addition measured after 24 hrs by Annexin V-FITC/propidium iodide staining based flow cytometry (reference value: 32.6%); format: functional
[17] = test system: PC-12; experiment: Cytoprotection against H2O2-induced apoptosis in rat PC12 cells assessed as late apoptotic cells at 2.5 uM preincubated for 4 hrs followed by H2O2 addition measured after 24 hrs by Annexin V-FITC/propidium iodide staining based flow cytometry (reference value: 32.6%); format: functional
[18] = Metal chelating activity assessed as compound-Fe3+ complex formation at 50 uM measured after 20 mins by fluorescence spectroscopic method
[19] = test system: PC-12; experiment: Inhibition of H2O2-induced ROS level in rat PC12 cells assessed as mean fluorescence intensity at 2.5 uM preincubated for 4 hrs followed by H2O2 addition measured after 24 hrs by DCFH-DA staining based flow cytometry (reference value: 16947); format: functional
[20] = test system: PC-12; experiment: Inhibition of H2O2-induced ROS level in rat PC12 cells preincubated for 4 hrs followed by H2O2 addition measured after 24 hrs by DCFH-DA staining based flow cytometry; format: functional, cell-based
[21] = Metal chelating activity assessed as compound-Cu2+ complex formation at 50 uM measured after 20 mins by fluorescence spectroscopic method
[22] = test system: Mus musculus; experiment: Acute toxicity in Kunming mouse assessed as mortality up to 2000 mg/kg, po measured after 14 days; format: organism-based; conditions: in vivo, 336 h
[23] = test system: PC-12; experiment: Cytoprotection against H2O2-induced oxidative stress in rat PC12 cells assessed as increase in cell viability after 24 hrs by MTT assay; format: functional, cell-based
[24] = Metal chelating activity assessed as compound-Zn2+ complex formation by measuring maximum absorption wavelength at 50 uM measured after 30 mins by UV-vis spectrophotometric method (reference value: 241 nanometer)
[25] = Metal chelating activity assessed as compound-Fe2+ complex formation by measuring maximum absorption wavelength at 50 uM measured after 30 mins by UV-vis spectrophotometric method (reference value: 241 nanometer)
[26] = Metal chelating activity assessed as compound-Fe2+ complex formation at 50 uM measured after 20 mins by fluorescence spectroscopic method
[27] = test system: PC-12; experiment: Cytoprotection against H2O2-induced apoptosis in rat PC12 cells assessed as late apoptotic cells at 5 uM preincubated for 4 hrs followed by H2O2 addition measured after 24 hrs by Annexin V-FITC/propidium iodide staining based flow cytometry (reference value: 32.6%); format: functional
[28] = test system: PC-12; experiment: Cytoprotection against oligomycin A-induced oxidative stress in rat PC12 cells assessed as increase in cell viability up to 10 uM after 24 hrs by MTT assay; format: functional, cell-based
[29] = test system: PC-12; experiment: Cytoprotection against H2O2-induced apoptosis in rat PC12 cells assessed as early apoptotic cells at 2.5 uM preincubated for 4 hrs followed by H2O2 addition measured after 24 hrs by Annexin V-FITC/propidium iodide staining based flow cytometry (reference value: 1.5%); format: functional
[30] = test system: PC-12; experiment: Cytoprotection against H2O2-induced apoptosis in rat PC12 cells assessed as necrotic cells at 10 uM preincubated for 4 hrs followed by H2O2 addition measured after 24 hrs by Annexin V-FITC/propidium iodide staining based flow cytometry (reference value: 8.9%); format: functional
[31] = Metal chelating activity assessed as mole fraction of compound required to show 2:1 stoichiometry for compound-Zn2+ complex at 50 uM by Job's plot analysis
[32] = test system: Mus musculus; experiment: Acute toxicity in Kunming mouse assessed as effect on food consumption up to 2000 mg/kg, po measured after 4 hrs; format: organism-based; conditions: in vivo
[33] = test system: PC-12; experiment: Inhibition of H2O2-induced ROS level in rat PC12 cells assessed as mean fluorescence intensity at 10 uM preincubated for 4 hrs followed by H2O2 addition measured after 24 hrs by DCFH-DA staining based flow cytometry (reference value: 16947); format: functional
[34] = test system: PC-12; experiment: Cytoprotection against H2O2-induced apoptosis in rat PC12 cells assessed as live cells at 10 uM preincubated for 4 hrs followed by H2O2 addition measured after 24 hrs by Annexin V-FITC/propidium iodide staining based flow cytometry (reference value: 57%); format: functional
[35] = test system: PC-12; experiment: Cytoprotection against H2O2-induced apoptosis in rat PC12 cells assessed as early apoptotic cells at 10 uM preincubated for 4 hrs followed by H2O2 addition measured after 24 hrs by Annexin V-FITC/propidium iodide staining based flow cytometry (reference value: 1.5%); format: functional
[36] = test system: PC-12; experiment: Cytoprotection against H2O2-induced apoptosis in rat PC12 cells assessed as live cells at 2.5 uM preincubated for 4 hrs followed by H2O2 addition measured after 24 hrs by Annexin V-FITC/propidium iodide staining based flow cytometry (reference value: 57%); format: functional
[37] = test system: PC-12; experiment: Cytoprotection against H2O2-induced apoptosis in rat PC12 cells assessed as early apoptotic cells at 5 uM preincubated for 4 hrs followed by H2O2 addition measured after 24 hrs by Annexin V-FITC/propidium iodide staining based flow cytometry (reference value: 1.5%); format: functional
[38] = test system: Mus musculus; experiment: Nephrotoxicity in Kunming mouse up to 2000 mg/kg, po measured after 14 days by macroscopic method; format: toxicity, organism-based; conditions: in vivo, 336 h
[39] = test system: PC-12; experiment: Cytoprotection against H2O2-induced apoptosis in rat PC12 cells assessed as live cells at 5 uM preincubated for 4 hrs followed by H2O2 addition measured after 24 hrs by Annexin V-FITC/propidium iodide staining based flow cytometry (reference value: 57%); format: functional
[40] = Metal chelating activity assessed as compound-Zn2+ complex formation at 50 uM measured after 20 mins by fluorescence spectroscopic method
[41] = Metal chelating activity assessed as compound-Fe3+ complex formation at 50 uM measured after 30 mins by UV-vis spectrophotometric method
[42] = test system: PC-12; experiment: Cytoprotection against rotenone-induced oxidative stress in rat PC12 cells assessed as increase in cell viability up to 10 uM after 24 hrs by MTT assay; format: functional, cell-based
[43] = test system: Mus musculus; experiment: Cardiotoxicity in Kunming mouse up to 2000 mg/kg, po measured after 14 days by macroscopic method; format: toxicity, organism-based; conditions: in vivo, 336 h
[44] = Cytotoxicity against rat PC12 cells assessed as cell viability at 20 uM after 24 hrs by MTT assay relative to control; format: cell-based, PC-12; conditions: read-out: Activity
[45] = test system: Mus musculus; experiment: Hepatotoxicity in Kunming mouse up to 2000 mg/kg, po measured after 14 days by macroscopic method; format: toxicity, organism-based; conditions: in vivo, 336 h

Cc1ccccc1/C=C/C(=O)N1CCN(Cc2ccc(O)c3ncccc23)CC1
pIC50 [1]: 4.76
inhibition [2]: 26.1%
Activity [3]: 1.52 equiv

COc1ccc(CCC(=O)N2CCN(Cc3ccc(O)c4ncccc34)CC2)cc1OC
inhibition [2]: 18.3%
Papp at 10 h, 100 ug/ml [4]: 9.67 ×10⁻⁶ cm/s
Activity [3]: 3.74 equiv

Oc1ccc(/C=C/c2cc(O)cc(O)c2)cc1
Activity [3]: 3.28 equiv

CCn1cc(C(=O)O)c(=O)c2cc(F)c(N3CCNC(C)C3)c(F)c21 (stereo not given) [LOMEFLOXACIN]
Papp at 10 h, 100 ug/ml [4]: 1.59 ×10⁻⁶ cm/s

Oc1c(I)cc(Cl)c2cccnc12
inhibition [5]: 55.3%
inhibition [2]: 25.7%
inhibition [6]: 61.4%
Activity [3]: 0.53 equiv

O=C(/C=C/c1ccc([N+](=O)[O-])cc1)N1CCN(Cc2ccc(O)c3ncccc23)CC1
inhibition [2]: 13.2%
Activity [3]: 0.71 equiv

O=C(/C=C/c1ccc(Cl)cc1)N1CCN(Cc2ccc(O)c3ncccc23)CC1
pIC50 [1]: 4.65
inhibition [2]: 25.7%
Activity [3]: 0.69 equiv

O=C(CCc1ccccc1Cl)N1CCN(Cc2ccc(O)c3ncccc23)CC1
Activity [7]: 3.7%
pIC50 [1]: 5.25
Activity [8]: 1.4%
Activity [9]: Non-Toxic
Activity [10]: 261 nm
Flu intensity [11]: 10332
Activity [12]: 0.7 molar ratio
inhibition [5]: 73.3%
Activity [13]: Non-Toxic
Activity [14]: Non-Toxic
Activity [15]: Non-Toxic
Activity [16]: 5.8%
Activity [17]: 14.4%
Activity [18]: Active
Flu intensity [19]: 14556
inhibition [20]: Dose-dependent effect
inhibition [2]: 65.8%
Activity [21]: Active
Activity [22]: Non-Toxic
Activity [23]: Dose-dependent effect
Activity [24]: 260 nm
inhibition [6]: 88.9%
Activity [25]: 265 nm
Activity [26]: Active
Activity [27]: 8%
Activity [28]: Active
Papp at 10 h, 100 ug/ml [4]: 11.1 ×10⁻⁶ cm/s
Activity [29]: 2.1%
Activity [30]: 1.3%
Activity [31]: 0.66 molar ratio
Activity [32]: Non-Toxic
Activity [3]: 2.63 equiv
Flu intensity [33]: 9392
Activity [34]: 90.9%
Activity [35]: 2%
Activity [36]: 79.9%
Activity [37]: 2.3%
Activity [38]: Non-Toxic
Activity [39]: 88.3%
Activity [40]: Active
Activity [41]: Active
Activity [42]: Active
Activity [43]: Non-Toxic
viability at 24 h, 20 µM [44]: 83%
Activity [45]: Non-Toxic

O=C(O)/C=C/c1ccccc1
Activity [3]: 1.04 equiv

O=C(CCc1ccccc1)N1CCN(Cc2ccc(O)c3ncccc23)CC1
pIC50 [1]: 4.70
inhibition [2]: 28.1%
Activity [3]: 2.6 equiv

O=C(/C=C/c1ccc(F)cc1F)N1CCN(Cc2ccc(O)c3ncccc23)CC1
pIC50 [1]: 5.30
inhibition [5]: 52%
inhibition [2]: 73.4%
inhibition [6]: 62.1%
Papp at 10 h, 100 ug/ml [4]: 18.6 ×10⁻⁶ cm/s
Activity [3]: 1.57 equiv

N#Cc1ccc(/C=C/C(=O)N2CCN(Cc3ccc(O)c4ncccc34)CC2)cc1
pIC50 [1]: 4.77
inhibition [2]: 27.8%
Activity [3]: 1.77 equiv
